According to patent US5565460A, “Therapeutic purine agents for parkinson's disease” (Kyowa Hakko Koygo Co., Ltd., priority 1993, dated 1996):

Tests used:
[1] = system: Parkinson's disease model in mice (MPTP); assay: Effect on locomotor activity in Parkinson's disease model in mice (MPTP-treated mice); assay type: in vivo, male C57BL/6 mice; conditions: 30 minutes measurement
Procedure: 1-Methyl-4-phenyl-1,2,3,6-tetrahydropyridine (MPTP) causes symptoms of Parkinson's disease in humans Science, 219, 979 (1983)]. It is reported that an experimental Parkinson's disease model was obtained by administering MPTP to mice [Science, 224, 1451 (1984)]. If a compound is effective on the experimental Parkinson's disease model in mouse, the compound can be expected to have a therapeutic effect on Parkinson's disease.
The experiment was performed by using several groups of 7-weeks-old male C57BL/6 mice (weighing 20 to 24 g, Japan SLC), each group consisting of 8 mice. MPTP (RBI Co., Ltd. ) dissolved in a physiological saline solution (Otsuka Pharmaceutical Co., Ltd. ) was intraperitoneally administered to each mouse once a day for five consecutive days at a dose of 30 mg/kg. Test compounds were suspended in injectable distilled water (Otsuka Pharmaceutical Co., Ltd.) containing Tween 80 [polyoxyethylene (20) sorbitan monooleate]. […] The amount of active movements of each mouse was measured by using Automex-II (Columbus Instruments International Corp.) for the period of 30 minutes starting 30 minutes after the administration of the test compound. The effect of the compounds was evaluated by comparing the average counts of the active movements of the test compound-administered groups with those of the control groups. […]

[2] = system: rats with a 6-hydroxydopamine-induced unilateral lesion of the nigrostriatal dopamine pathway; assay: Augmentation of the contralateral rotation in rats with a 6-hydroxydopamine-induced unilateral lesion of the nigrostriatal dopamine pathway; assay type: in vivo, male Sprague-Dawley rats; conditions: 150 minutes
Description: When a unilateral lesion of the nigrostriatal pathway is induced by 6-hydroxydopamine in rodents, the sensitivity of dopamine receptors in the denervated striatum is enhanced. Administration of a dopamine […] to the rodents in such a condition induces a rotational behavior to the side contralateral to the lesioned side [Acta Physiol. Scand., 367, 69 (1971)]. This model has been used for a long time as a model for the study of Parkinson's disease and in the screening of drugs for this disease [Neurol. Neurobiol.; 33, 1 (1987)].
Male Sprague-Dawley rats (weighing 200 to 240 g, Japan SLC) were pretreated with desipramine hydrochloride (25 mg/kg, i.p., Sigma Co.) 30 minutes before surgery to protect noradrenergic neurons. Then, the animals were: anesthetized with sodium pentobarbital (30 mg/kg, i.p., Dainippon Pharm. Co., Ltd.) and the nigrostriatal pathway was lesioned by injection of 6-hydroxydopamine hydrobromide (8 μg, Sigma Co.) into the left medial forebrain bundle. 6-Hydroxydopamine hydrobromide was dissolved in physiological saline containing 0.05% L-ascorbic acid (Wako Pure Chem. Industries, Ltd.) to make 2 μl. of solution and injected over 3 minutes.
More than 10 days after surgery, each rat was placed in a plastic bowl (30 cm in diameter). […] The number of rotations was counted with an automated rotometer, in which each 180° turn was counted as a rotation. […]

[3] = system: Haloperidol-induced catalepsy in mice; assay: Effect on haloperidol-induced catalepsy; assay type: in vivo, male ddY mice; conditions: Mus musculus; ten mice at each dose; effective = catalepsy score 3 or less; Probit analysis; read-out: ED50 (50% effective dose)
[4] = system: Haloperidol-induced catalepsy in mice; assay: Effect on haloperidol-induced catalepsy; assay type: in vivo, male ddY mice; conditions: 10 mg/kg, oral; for Number of the Animals Showing Remission: five mice, catalepsy score not more than 4; for Remission Rate: rate of decrease in total score based on control group; for Total Score (catalepsy): total of five mice, 25 points at the full (control 25), not more than 20 effective
Procedure: The experiment was performed by using several groups of 5-weeks-old male ddY mice (weighing 22.to 24 g, Japan SLC), each group consisting of 5 mice. Haloperidol (Janssen Pharmaceutical) suspended in 0.3% CMC was intraperitoneally administered to each mouse at a dose of 1.0 mg/kg. Test compounds were suspended in 0.3% CMC or in injectable distilled water (Otsuka Pharmaceutical Co., Ltd.) containing Tween 80. L-DOPA (Kyowa Hakko Kogyo Co., Ltd.) and benserazide hydrochloride (Kyowa Hakko Kogyo Co., Ltd.) were suspended in 0.3% CMC. One hour after the haloperidol administration, the test compound suspensions and the control suspension [injectable distilled water (Otsuka Pharmaceutical Co., Ltd.) containing Tween 80] containing no test compound were orally administered to separate groups of the mice (0.1 ml per 10 g of body weight). One hour after the administration of the test compound, the forelimbs of each mouse and subsequently the hindlimbs of the same mouse were placed on a 4.5 cm-high, 1.0 cm-wide bar and catalepsy was estimated. […] The catalepsy score and the standard of judgment are shown. below.
0: forelimbs less than 5 seconds
hindlimbs less than 5 seconds
2: forelimbs 10 seconds or more
hindlimbs 5 seconds or more
hindlimbs 10 seconds or more
5: forelimbs 10 seconds or more
The effect of the compounds was evaluated by the total of the catalepsy scores of five mice in each group (25 points at the full). The groups wherein the total score was not more than 20 point is were estimated to be effective. The number of the animals showing remission against catalepsy is the number of the mice for which the catalepsy score was not more than 4 points.
The ED50 values were calculated by Probit analysis.

rid-strain male mice = assay: Acute toxicity test; assay type: in vivo; conditions: oral, seven days after administration
Procedure: Test compounds were orally administered to groups of rid-strain male mice weighing 20±1 g, each group consisting of three mice. Seven days after the administration, minimum lethal dose (MLD) of each compound was determined by observing the mortality.

| Compound | Amount of Active Movements (average count ± S.E.M) ([1]; L-DOPA 300 mg/kg, MPTP group 207 ± 85.5, normal control 1875 ± 77.7, no significant difference vs MPTP-treated group) | total rotation counts (average count ± S.E.M.), test compound + apomorphine ([2]; 10 mg/kg oral 30 minutes before apomorphine 0.1 mg/kg, s.c., p<0.05) | ED50 [3] | Amount of Active Movements (average count ± S.E.M) ([1]; 10 mg/kg, oral, MPTP group 41 ± 14.3, normal control 1984 ± 122.3) | Number of the Animals Showing Remission [4] | Remission Rate [4] | Total Score (catalepsy) [4] | minimum lethal dose (MLD) (rid-strain male mice) | total rotation counts (average count ± S.E.M.), apomorphine ([2]; apomorphine 0.1 mg/kg, s.c. without test compound) |
| --- | --- | --- | --- | --- | --- | --- | --- | --- | --- |
| N[C@@H](Cc1ccc(O)c(O)c1)C(=O)O [L-DOPA, reference compound] | 561 ± 271.01 count |  |  |  |  |  |  |  |  |
| Nc1nc(Oc2ccccc2)nc2nc(-c3ccco3)nn12 [Compound 1, 7-Amino-2(2-furyl) -5-phenoxy [1,2,4]triazolo[1,5-a]-1,3,5-triazine] |  | 1011 ± 139 count | 1.3 mg/kg | 785 ± 87.3 count | 5 | 80% | 5 | greater than 300 mg/kg |  |
| CN1CCc2cccc3c2[C@H]1Cc1ccc(O)c(O)c1-3 [apomorphine, reference compound] |  |  |  |  |  |  |  |  | 706 ± 59 count |
| Nc1nc2ccc(Cl)cc2c2nc(-c3ccco3)nn12 [Compound 3, 5-Amino-9-chloro-2-(2-furyl) -1,2,4-triazolo-[1,5-c]quinazoline] |  |  |  |  | 4 | 48% | 13 |  |  |
| Nc1nc(Oc2ccccc2)nc2cc(-c3ccco3)nn12 [Compound 2, 7-Amino-2-(2-furyl) -5-phenoxypyrazolo [2,3-a]-1,3,5-triazine] |  |  |  |  | 4 | 32% | 17 | greater than 300 mg/kg |  |
| Nc1nc2nn(Cc3ccc(F)cc3)cc2c2nc(-c3ccco3)nn12 [Compound 4, 5-Amino-8-(4-fluorobenzyl) -2-(2-furyl)pyrazolo-[4,3-e]-1,2,4-triazolo [1,5-c]pyrimidine] |  |  |  |  | 3 | 52% | 12 |  |  |
